These results are taken from ChEMBL document CHEMBL6153147 (J Med Chem, 2025).

pIC50: −log10 of the molar value.

In data set [1] the target is Serine/threonine-protein kinase PLK3 (Homo sapiens, UniProt Q9H4B4). Put plainly: Inhibition of human PLK3 using ATF2 as substrate incubated for 40 mins in presence of [gamma-33P]ATP/Mg acetate by scintillation counting analysis.
In data set [2] the target is Serine/threonine-protein kinase PLK1 (Homo sapiens, UniProt P53350). Put plainly: Inhibition of human PLK1 assessed as residual activity at 10 uM by kinome selectivity profiling analysis relative to control.
Data set [3] has as its target Epidermal growth factor receptor (Homo sapiens) (UniProt P00533). Nature of the data set: Inhibition of human EGFR assessed as residual activity at 10 uM by kinome selectivity profiling analysis relative to control.
A further data set is filed under the species Homo sapiens. Put plainly: Inhibition of human HRI assessed as residual activity at 10 uM by kinome selectivity profiling analysis relative to control.
The target of the next data set is Cytochrome P450 3A4 (Homo sapiens, UniProt P08684). Nature of the data set: Inhibition of CYP3A4 in human liver microsomes using midazolam as substrate preincubated with compound followed by substrate addition measured after 5 mins in presence of NADPH by LC-MS/MS analysis. The data set is classed as ADME, Microsome. Background: Microsomes from liver hold many membrane-bound enzymes, among them those of drug oxidation.

Data set [4] is described as follows: Solubility of compound in 0.01 M PBS at pH 7.4 assessed as fold increase equilibrated for 12 hrs by UV spectrophotometry relative to BI 2536. It counts as physicochemical. Conditions: buffer, pH 7.4, 12 h.
Data set [5] in a line: Metabolic stability in human liver microsomes assessed as half life preincubated for 5 mins followed by NADPH addition by LC-MS/MS analysis. It counts as ADME, Microsome.
A short description of data set [6]: Metabolic stability in dog liver microsomes assessed as intrinsic clearance preincubated for 5 mins followed by NADPH addition by LC-MS/MS analysis. Conditions: read-out: CLH. The data set is classed as ADME, Canis lupus familiaris, Microsome.
Data set [7] can be described thus: Metabolic stability in human liver microsomes assessed as intrinsic clearance in microsome measured per mg protein preincubated for 5 mins followed by NADPH addition by LC-MS/MS analysis. It counts as ADME. The conditions noted are these: read-out: CLH.
Data set [8] is described as follows: Effect on F-actin cytoskeleton in HEK293T cells at 10 uM incubated for 24 hrs by immunofluorescence based analysis. It counts as toxicity, cell-based. Conditions: human, hek-293t.
Data set [9] is described as follows: Acute hematopoietic toxicity in mouse assessed as effect on biochemical indices at 500 mg/kg, IG qd treated for 7 days. The data set is classed as organism-based. The conditions noted are these: in vivo, po, 168 h, time 7 day.
The nature of data set [10]: Acute toxicity in mouse assessed as effect on behaviour at 500 mg/kg, IG qd treated for 7 days. The data set is classed as organism-based. The conditions noted are these: in vivo, po, 168 h, time 7 day.
A further data set concerns A549. Put plainly: cells. Conditions: Homo sapiens.
The subject of another data set is HL-60. Nature of the data set: cells. The conditions noted are these: Homo sapiens.

Sequence of Serine/threonine-protein kinase PLK1 (P53350 whole entry): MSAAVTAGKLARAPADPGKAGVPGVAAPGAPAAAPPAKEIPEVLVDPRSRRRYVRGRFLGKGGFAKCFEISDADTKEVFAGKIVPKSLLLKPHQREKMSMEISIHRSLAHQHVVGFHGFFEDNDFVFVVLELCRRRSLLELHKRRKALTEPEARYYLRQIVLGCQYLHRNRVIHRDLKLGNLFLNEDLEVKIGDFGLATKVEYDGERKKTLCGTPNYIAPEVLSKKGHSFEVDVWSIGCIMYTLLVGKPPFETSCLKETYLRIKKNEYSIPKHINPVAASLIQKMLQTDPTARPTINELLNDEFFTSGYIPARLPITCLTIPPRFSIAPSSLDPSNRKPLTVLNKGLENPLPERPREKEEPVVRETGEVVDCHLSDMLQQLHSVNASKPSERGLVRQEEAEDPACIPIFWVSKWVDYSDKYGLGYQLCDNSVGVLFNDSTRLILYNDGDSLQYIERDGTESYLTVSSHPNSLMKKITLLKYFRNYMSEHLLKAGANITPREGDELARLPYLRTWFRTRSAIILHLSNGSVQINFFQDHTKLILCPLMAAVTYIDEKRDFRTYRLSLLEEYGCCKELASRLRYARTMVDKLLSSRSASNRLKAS
Sequence of Cytochrome P450 3A4 (P08684 whole entry): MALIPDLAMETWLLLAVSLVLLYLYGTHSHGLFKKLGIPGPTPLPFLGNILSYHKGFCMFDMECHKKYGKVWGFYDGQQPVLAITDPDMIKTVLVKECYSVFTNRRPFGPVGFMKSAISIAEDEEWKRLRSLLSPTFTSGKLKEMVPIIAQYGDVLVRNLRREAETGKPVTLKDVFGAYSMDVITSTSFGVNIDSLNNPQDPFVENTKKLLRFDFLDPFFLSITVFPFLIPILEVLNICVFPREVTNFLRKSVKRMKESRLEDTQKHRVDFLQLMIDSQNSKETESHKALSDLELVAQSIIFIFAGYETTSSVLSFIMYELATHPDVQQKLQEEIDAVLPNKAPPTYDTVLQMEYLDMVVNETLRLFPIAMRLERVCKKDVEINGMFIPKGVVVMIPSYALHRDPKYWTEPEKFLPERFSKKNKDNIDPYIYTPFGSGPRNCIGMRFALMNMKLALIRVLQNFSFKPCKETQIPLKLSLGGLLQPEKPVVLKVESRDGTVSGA
Sequence of Epidermal growth factor receptor (Homo sapiens) (P00533 whole entry): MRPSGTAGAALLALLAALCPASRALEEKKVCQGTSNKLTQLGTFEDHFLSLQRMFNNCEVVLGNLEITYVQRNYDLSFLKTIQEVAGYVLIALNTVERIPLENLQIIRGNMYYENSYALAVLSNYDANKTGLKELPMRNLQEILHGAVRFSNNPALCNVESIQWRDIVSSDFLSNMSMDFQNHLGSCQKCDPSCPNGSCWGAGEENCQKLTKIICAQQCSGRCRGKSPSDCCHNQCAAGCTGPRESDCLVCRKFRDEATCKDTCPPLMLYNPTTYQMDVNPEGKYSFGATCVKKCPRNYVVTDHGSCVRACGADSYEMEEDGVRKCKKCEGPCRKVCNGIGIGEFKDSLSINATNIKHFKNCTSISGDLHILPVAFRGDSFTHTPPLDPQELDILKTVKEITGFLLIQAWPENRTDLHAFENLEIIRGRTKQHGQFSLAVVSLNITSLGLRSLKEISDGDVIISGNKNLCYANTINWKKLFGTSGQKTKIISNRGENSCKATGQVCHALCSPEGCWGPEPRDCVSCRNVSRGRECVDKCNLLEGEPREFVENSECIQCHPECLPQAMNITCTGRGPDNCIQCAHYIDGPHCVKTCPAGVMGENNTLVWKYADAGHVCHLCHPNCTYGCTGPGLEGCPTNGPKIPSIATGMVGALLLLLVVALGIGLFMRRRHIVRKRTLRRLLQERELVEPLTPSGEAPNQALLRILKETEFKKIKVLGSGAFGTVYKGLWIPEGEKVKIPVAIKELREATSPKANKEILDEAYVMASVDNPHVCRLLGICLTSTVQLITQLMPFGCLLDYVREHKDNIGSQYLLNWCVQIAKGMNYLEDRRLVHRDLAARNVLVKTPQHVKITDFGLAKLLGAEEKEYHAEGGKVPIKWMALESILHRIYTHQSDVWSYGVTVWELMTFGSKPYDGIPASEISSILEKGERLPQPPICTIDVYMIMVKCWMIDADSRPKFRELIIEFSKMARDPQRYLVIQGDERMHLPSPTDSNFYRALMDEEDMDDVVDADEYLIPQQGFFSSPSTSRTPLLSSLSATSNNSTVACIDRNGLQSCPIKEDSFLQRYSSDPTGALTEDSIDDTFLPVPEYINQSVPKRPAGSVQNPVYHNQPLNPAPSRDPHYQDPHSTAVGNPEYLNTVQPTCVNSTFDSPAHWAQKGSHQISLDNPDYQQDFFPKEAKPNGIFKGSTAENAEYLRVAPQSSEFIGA
Sequence of Serine/threonine-protein kinase PLK3 (Q9H4B4 whole entry): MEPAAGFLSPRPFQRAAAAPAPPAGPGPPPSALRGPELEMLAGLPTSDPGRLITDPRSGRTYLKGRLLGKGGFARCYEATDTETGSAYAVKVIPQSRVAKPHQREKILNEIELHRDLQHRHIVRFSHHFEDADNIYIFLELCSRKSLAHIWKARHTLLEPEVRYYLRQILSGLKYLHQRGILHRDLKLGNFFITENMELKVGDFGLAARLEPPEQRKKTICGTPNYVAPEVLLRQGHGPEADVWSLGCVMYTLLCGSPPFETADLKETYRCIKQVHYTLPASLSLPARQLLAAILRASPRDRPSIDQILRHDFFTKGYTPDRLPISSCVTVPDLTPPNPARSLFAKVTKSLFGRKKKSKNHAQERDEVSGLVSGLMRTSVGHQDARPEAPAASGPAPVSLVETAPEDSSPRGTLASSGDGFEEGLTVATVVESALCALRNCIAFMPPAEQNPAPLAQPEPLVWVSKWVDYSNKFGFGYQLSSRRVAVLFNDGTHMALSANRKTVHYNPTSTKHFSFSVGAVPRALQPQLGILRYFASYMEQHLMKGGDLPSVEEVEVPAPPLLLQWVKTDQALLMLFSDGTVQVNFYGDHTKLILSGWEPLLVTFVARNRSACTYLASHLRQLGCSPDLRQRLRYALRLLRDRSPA

By pIC50 is commonly meant −log10 of the IC50, conventionally taken in molar units. As a reminder, the half-life is the time needed for the level to fall by half in the phase considered. On to `CC[C@@H]1C(=O)N(C)c2cnc(Nc3cc(N4CCN(C)CC4)cc(Cl)c3OCCCO)nc2N1C1CCCC1`, for which the pIC50 in data set [1] was 5.40; on Cytochrome P450 3A4 it was below 5.00; in the data set with A549 it was 7.49; in the data set with HL-60, 7.23. For the same compound, the Activity in data set [2] is -2%; in data set [3] it was 107%; in the data set listed under Homo sapiens, 54%; in data set [8] it was “Non-toxic”; in data set [9], “Non-toxic”; in data set [10], “Non-toxic”. In addition, the “fold change (FC)” value in [4] was above 2. Also, the half-life in [5] came out at 30.3 min. Further, the CLint scaled in data set [6] is 474 mL/min/kg. For the same compound, in data set [7], the microsomal CLint was 68.3 µL/min/mg.
